Assay results reported in US20260258035A1, “FIVE-MEMBERED AND SIX-MEMBERED NITROGEN-CONTAINING COMPOUND, AND INTERMEDIATE, PREPARATION METHOD AND USE THEREOF” (HANGZHOU SYNRX THERAPEUTICS BIOMEDICAL TECHNOLOGY CO., LTD., priority 2022, published 2026).

Tests used:
HCC1806 = assay: Cell viability assay (CellTiter-Glo); format: cell-based, Human; conditions: Homo sapiens, HCC1806, 168 h, HCC1806, 7 days, CellTiter-Glo; read-out: IC50 (nM) in cell viability assay
PARG = PARG (Homo sapiens, UniProt Q86W56); assay: Biochemical assay (PARG, TFMU-ADPr substrate); conditions: PARG, TFMU-ADPr substrate
Sequence of PARG (Q86W56 whole entry): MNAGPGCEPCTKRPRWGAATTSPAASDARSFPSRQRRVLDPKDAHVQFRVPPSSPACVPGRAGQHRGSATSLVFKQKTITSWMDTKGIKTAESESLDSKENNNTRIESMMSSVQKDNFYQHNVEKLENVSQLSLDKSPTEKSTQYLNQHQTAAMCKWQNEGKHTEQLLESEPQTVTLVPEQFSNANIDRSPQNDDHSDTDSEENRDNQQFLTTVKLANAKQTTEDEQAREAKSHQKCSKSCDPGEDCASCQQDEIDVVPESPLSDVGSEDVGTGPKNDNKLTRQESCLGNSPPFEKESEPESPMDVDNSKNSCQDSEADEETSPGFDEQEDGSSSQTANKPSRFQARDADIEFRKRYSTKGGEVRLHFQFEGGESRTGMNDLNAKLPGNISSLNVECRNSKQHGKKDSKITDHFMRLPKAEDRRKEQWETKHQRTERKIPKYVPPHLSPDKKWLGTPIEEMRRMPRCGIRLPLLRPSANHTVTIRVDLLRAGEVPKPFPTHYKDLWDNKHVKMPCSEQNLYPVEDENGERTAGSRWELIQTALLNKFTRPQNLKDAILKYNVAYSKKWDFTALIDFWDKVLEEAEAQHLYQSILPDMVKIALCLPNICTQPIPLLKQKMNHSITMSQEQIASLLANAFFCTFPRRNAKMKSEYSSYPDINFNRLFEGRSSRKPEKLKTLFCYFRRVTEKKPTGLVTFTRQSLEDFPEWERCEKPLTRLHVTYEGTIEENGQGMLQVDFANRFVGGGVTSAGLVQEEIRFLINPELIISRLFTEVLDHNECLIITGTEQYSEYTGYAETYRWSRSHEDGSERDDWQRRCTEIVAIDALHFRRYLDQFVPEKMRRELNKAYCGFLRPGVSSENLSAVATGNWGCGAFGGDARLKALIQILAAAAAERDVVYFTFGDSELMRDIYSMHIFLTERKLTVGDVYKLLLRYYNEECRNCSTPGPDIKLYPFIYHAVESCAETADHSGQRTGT

| SMILES | IC50 (HCC1806) [nM] | IC50 (PARG) [nM] |
| --- | --- | --- |
| CC1(NS(=O)(=O)c2cc(N3CCN(C(=O)C4(C)CCN4)CC3)c3cnc(-c4nnc(C(F)(F)F)s4)n3c2)CC1 (stereo not shown) [Example 321, 8-(4-(2-methylazetidine-2-carbonyl)piperazin-1-yl)-N-(1-methylcyclopropyl)-3-(5-(trifluoromethyl)-1,3,4-thiadiazol-2-yl)imidazo[1,5-a]pyridine-6-sulfonamide] | 175 | 2.93 |
| CN1CC(F)(C(=O)N2CCN(c3cc(S(=O)(=O)NC4(C)CC4)cn4c(-c5nnc(C(F)(F)F)s5)ncc34)CC2)C1 [Example 322, 8-(4-(3-fluoro-1-methylazetidine-3-carbonyl)piperazin-1-yl)-N-(1-methylcyclopropyl)-3-(5-(trifluoromethyl)-1,3,4-thiadiazol-2-yl)imidazo[1,5-a]pyridine-6-sulfonamide] | 334 | 16.5 |
| CC1(NS(=O)(=O)c2cc(N3CCN(C(=O)[C@H]4C[C@H](F)CN4)CC3)c3cnc(-c4nnc(C(F)(F)F)s4)n3c2)CC1 [Example 323, 8-(4-((2R,4S)-4-fluoropyrrolidine-2-carbonyl)piperazin-1-yl)-N-(1-methylcyclopropyl)-3-(5-(trifluoromethyl)-1,3,4-thiadiazol-2-yl)imidazo[1,5-a]pyridine-6-sulfonamide] | 181 | 5.41 |
| CN1CCC[C@@H]1C(=O)N1CCN(c2cc(S(=O)(=O)NC3(C)CC3)cn3c(-c4nnc(C(F)(F)F)s4)ncc23)CC1 [Example 325, 8-(4-(methyl-D-prolyl)piperazin-1-yl)-N-(1-methylcyclopropyl)-3-(5-(trifluoromethyl)-1,3,4-thiadiazol-2-yl)imidazo[1,5-a]pyridine-6-sulfonamide] | 120 | 4.46 |
| CC1(NS(=O)(=O)c2cc(N3CCN(C(=O)C4NCCS4)CC3)c3cnc(-c4nnc(C(F)(F)F)s4)n3c2)CC1 (stereo not shown) [Example 326, N-(1-methylcyclopropyl)-8-(4-(thiazolidine-2-carbonyl)piperazin-1-yl)-3-(5-(trifluoromethyl)-1,3,4-thiadiazol-2-yl)imidazo[1,5-a]pyridine-6-sulfonamide] | 257 | 4.82 |
| COC1(C(=O)N2CCN(c3cc(S(=O)(=O)NC4(C)CC4)cn4c(-c5nnc(C(F)(F)F)s5)ncc34)CC2)CCC1 [Example 327, 8-(4-(1-methoxycyclobutane-1-carbonyl)piperazin-1-yl)-N-(1-methylcyclopropyl)-3-(5-(trifluoromethyl)-1,3,4-thiadiazol-2-yl)imidazo[1,5-a]pyridine-6-sulfonamide] | 6.13 | 0.15 |
| COC(C)C(=O)N1CCN(c2cc(S(=O)(=O)NC3(C)CC3)cn3c(-c4nnc(C(F)(F)F)s4)ncc23)CC1 (stereo not shown) [Example 328, 8-(4-(2-methoxypropanoyl)piperazin-1-yl)-N-(1-methylcyclopropyl)-3-(5-(trifluoromethyl)-1,3,4-thiadiazol-2-yl)imidazo[1,5-a]pyridine-6-sulfonamide] | 55.6 | 1.21 |
| CC1(NS(=O)(=O)c2cc(N3CCN(C(=O)c4ccno4)CC3)c3cnc(-c4nnc(C(F)(F)F)s4)n3c2)CC1 [Example 329, 8-(4-(isoxazole-5-carbonyl)piperazin-1-yl)-N-(1-methylcyclopropyl)-3-(5-(trifluoromethyl)-1,3,4-thiadiazol-2-yl)imidazo[1,5-a]pyridine-6-sulfonamide] | 187 | 7.64 |
| CC(C)C(=O)N1CCN(c2cc(S(=O)(=O)NC3(C)CC3)cn3c(-c4nnc(C(F)F)s4)ncc23)C[C@H]1CO [Example 331, (S)-3-(5-(difluoromethyl)-1,3,4-thiadiazol-2-yl)-8-(3-(hydroxymethyl)-4-isobutyrylpiperazin-1-yl)-N-(1-methylcyclopropyl)imidazo[1,5-a]pyridine-6-sulfonamide] | 78.1 | 0.44 |
| CN1CC[C@@H]1C(=O)N1CCN(c2c(F)c(S(=O)(=O)NC3(C)CC3)cn3c(-c4nnc(C(F)(F)F)s4)ncc23)CC1 [Example 332, (R)-7-fluoro-8-(4-(1-methylazetidine-2-carbonyl)piperazin-1-yl)-N-(1-methylcyclopropyl)-3-(5-(trifluoromethyl)-1,3,4-thiadiazol-2-yl)imidazo[1,5-a]pyridine-6-sulfonamide] | 745 | 10.8 |
| CN1CC(C(=O)N2CCN(c3cc(S(=O)(=O)NC4(C)CC4)cn4c(-c5nnc(C(F)(F)F)s5)ncc34)CC2)C1 [Example 333, 8-(4-(1-methylazetidine-3-carbonyl)piperazin-1-yl)-N-(1-methylcyclopropyl)-3-(5-(trifluoromethyl)-1,3,4-thiadiazol-2-yl)imidazo[1,5-a]pyridine-6-sulfonamide] | 310 | 3.83 |
| Cc1ncn(CC(=O)N2CCN(c3cc(S(=O)(=O)NC4(C)CC4)cn4c(-c5nnc(C(F)(F)F)s5)ncc34)CC2)n1 [Example 334, 8-(4-(2-(3-methyl-1H-1,2,4-triazol-1-yl)acetyl)piperazin-1-yl)-N-(1-methylcyclopropyl)-3-(5-(trifluoromethyl)-1,3,4-thiadiazol-2-yl)imidazo[1,5-a]pyridine-6-sulfonamide] | 354 | 6.31 |
| Cc1ncnn1CC(=O)N1CCN(c2cc(S(=O)(=O)NC3(C)CC3)cn3c(-c4nnc(C(F)(F)F)s4)ncc23)CC1 [Example 335, 8-(4-(2-(5-methyl-1H-1,2,4-triazol-1-yl)acetyl)piperazin-1-yl)-N-(1-methylcyclopropyl)-3-(5-(trifluoromethyl)-1,3,4-thiadiazol-2-yl)imidazo[1,5-a]pyridine-6-sulfonamide] | 480 | 6.55 |
| CN(C)CC1(O)CCN(c2cc(S(=O)(=O)NC3(C)CC3)cn3c(-c4nnc(C(F)F)s4)ncc23)CC1 [Example 337, 3-(5-(difluoromethyl)-1,3,4-thiadiazol-2-yl)-8-(4-((dimethylamino)methyl)-4-hydroxypiperidin-1-yl)-N-(1-methylcyclopropyl)imidazo[1,5-a]pyridine-6-sulfonamide] | 245 | 4.82 |
| CC1(NS(=O)(=O)c2cc(N3CCN(C(=O)c4ccncc4)CC3)c3cnc(-c4nnc(C(F)F)s4)n3c2)CC1 [Example 338, 3-(5-(difluoromethyl)-1,3,4-thiadiazol-2-yl)-8-(4-isonicotinoylpiperazin-1-yl)-N-(1-methylcyclopropyl)imidazo[1,5-a]pyridine-6-sulfonamide] | 50 | 0.48 |
| CC1(NS(=O)(=O)c2cc(N3CCN(C(=O)c4ncc[nH]4)CC3)c3cnc(-c4nnc(C(F)F)s4)n3c2)CC1 [Example 339, 8-(4-(1H-imidazole-2-carbonyl)piperazin-1-yl)-3-(5-(difluoromethyl)-1,3,4-thiadiazol-2-yl)-N-(1-methylcyclopropyl)imidazo[1,5-a]pyridine-6-sulfonamide] | 226 | 3.16 |
| CC1(NS(=O)(=O)c2cc(N3CCN(C(=O)c4c[nH]cn4)CC3)c3cnc(-c4nnc(C(F)F)s4)n3c2)CC1 [Example 340, 8-(4-(1H-imidazole-4-carbonyl)piperazin-1-yl)-3-(5-(difluoromethyl)-1,3,4-thiadiazol-2-yl)-N-(1-methylcyclopropyl)imidazo[1,5-a]pyridine-6-sulfonamide] | 1580 | 2.15 |
